Measured values as given in patent US6600037B1, “4,5-disubstituted-2-aminopyrimidines” (Celltech R & D Limited, priority 1999, dated 2003).

melting point [°C] | SMILES
172 to 176 | CC(C)(N)c1ccc(-c2nc(Nc3ccc(CCO)cc3)ncc2Cl)cc1F [Example 4, 4-[4-(1-Amino-1-methylethyl)-3-fluorophenyl]-5-chloro-N-[4-(2-hydroxyethyl)phenyl]pyrimidine-2-amine]
72 to 78 | C=CCOC(=O)NC(C)(C)c1ccc(-c2nc(Nc3ccc(CCn4ccnc4)cc3)ncc2Cl)cc1 [Example 5, 4-[4-(1-Allyloxycarbonylamino-1-methylethyl)phenyl]-5-chloro-N-[4-(2-(imidazol-1-yl)ethyl)phenyl]pyrimidine-2-amine]
88 | C=CCOC(=O)NC(C)(C)c1ccc(-c2nc(Nc3ccc(CCn4ccnc4)cc3)ncc2Cl)cc1F [Example 7, 4-[4-(1-Allyloxycarbonylamino-1-methylethyl)-3-fluorophenyl]-5-chloro-N-[4-(2-(imidazol-1-yl)ethyl)phenyl]pyrimidine-2-amine]
166 to 173 | CC(C)(N)c1ccc(-c2nc(Nc3ccc(CCN4CCOCC4)cc3)ncc2Cl)cc1 [Example 9, 4-[4-(1-Amino-1-methylethyl)phenyl]-5-chloro-N-[4-(2-morpholinoethyl)phenyl]pyrimidine-2-amine]
112 to 120 | CC(C)(N)c1ccc(-c2nc(Nc3ccc(CCn4ccnc4)cc3)ncc2Cl)cc1F [Example 10, 4-[4-(1-Amino-1-methylethyl)-3-fluorophenyl]-5-chloro-N-[4-(2-(imidazol-1-yl)ethyl)phenyl]pyrimidine 2-amine]

Further lines, the compound ahead of its results:

SMILES | melting point [°C]
CC(C)(N)c1ccc(-c2nc(Nc3ccc(CCO)cc3)ncc2Cl)cc1 [Example 1, 4-[4-(1-Amino-1-methylethyl)phenyl]-5-chloro-N-[4-(2-hydroxyethyl)phenyl]pyrimidine-2-amine] | 162 to 163
CC(C)(N)c1ccc(-c2nc(Nc3cccc(CCO)c3)ncc2Cl)cc1 [Example 2, 4-[4-(1-Amino-1-methylethyl)phenyl]-5-chloro-N-[3-(2-hydroxyethyl)phenyl]pyrimidine-2-amine] | 184 to 185
CC(C)(N)c1ccc(-c2nc(Nc3ccc(-n4ccnc4)cc3)ncc2Cl)cc1 [Example 3, 4-[4-(1-Amino-1-methylethyl)phenyl]-5-chloro-N-[4-(1-imidazolyl)phenyl]pyrimidine-2-amine] | 199 to 201
